Measurements from patent US11890316B2, “Oral octreotide therapy and contraceptive methods” (Amryt Endo, Inc., priority 2020, dated 2024).

Key:
clinical [1] = settings: female, human, in vivo, po
clinical [2] = settings: for Cmax, least squares geometric mean, Test / Cmax, least squares geometric mean, Reference: co-administered with HCTZ and metformin, in ng/mL; for effect of oral octreotide on the exposure to the probe drug (Cmax and AUC0-5): single 40 mg oral octreotide acetate vs placebo, first 5 h after dosing
From the text: This was a single-center, randomized, single-blind, placebo-controlled, crossover design study in healthy male and female subjects.
Eligible subjects were randomized in a 1:1 ratio to one of two treatment sequences of test conditions (i.e., Group 1 or Group 2); females were studied under 4 test conditions (A to D), whereas males were studied under 2 test conditions only (A and B), as shown in Table 1.
The study comprised a screening period, 4 treatment (dosing) periods for females and 2 treatment periods for males, and a follow-up period (approximately 7-10 days following the last dosing). There was a washout period of at least 14 days between dosing events.
The effect of […] on the absorption of estradiol was assessed by comparing Test Conditions C and D in up to 14 females. Blood sampling was conducted over the first 5 hours after administration.
Confidence intervals (Cis) (90%) were constructed for the geometric mean rations (GMRs) (probe drug+oral octreotide to probe drug alone) of the 2 parameters using the natural log-transformed data and the 2 one-sided t-tests procedure. The GMRs and CIs were exponentiated back to the original scale. The effect of concurrent administration of oral octreotide was assessed from the GMRs and 90% Cis. The discrete parameter Tmax was compared among treatments using non-parametric analyses.

[3] = both, human, in vivo, po, 100 mg
[4] = both, human, in vivo, po, 850 mg
[5] = R-warfarin with oral octreotide vs R-warfarin with placebo
[6] = S-warfarin with oral octreotide vs S-warfarin with placebo

## C#C[C@]1(O)CC[C@H]2[C@@H]3CCc4cc(O)ccc4[C@H]3CC[C@@]21C [Ethinyl Estradiol, ethinyl estradiol]
Clinical [1]
  Cmax Geometric Mean Ratio, Estimate: 92.05%
  Tmax: 2.75 h
Clinical [1]; 0.06 mg
  AUC(0-t): 0.37 ± 0.0802 ng·h/mL
  Tmax: 1.79 h
Clinical [1]; 0.06 mg, Cmax
  Cmax: 0.113 ± 0.0287 ng/mL

## NS(=O)(=O)c1cc2c(cc1Cl)NCNS2(=O)=O [Hydrochlorothiazide, hydrochlorothiazide]
Clinical [2]; both, human, in vivo, po
  AUC(0-5) Geometric Mean Ratio, Estimate: 81.82%
  Cmax Geometric Mean Ratio, Estimate: 91.21%
  Tmax: 4 h
Clinical [2]; [3]
  AUC(0-t): 2030 ± 392 ng·h/mL
  Tmax: 2.75 h
Clinical [2]; both, human, in vivo, po, 100 mg, Cmax
  Cmax: 655 ± 128 ng/mL

## CN(C)C(=N)N=C(N)N [Metformin, metformin]
Clinical [2]; [4]
  AUC(0-t): 5500 ± 1280 ng·h/mL
  Cmax: 1450 ± 398 ng/mL

## CC(=O)C[C@H](c1ccccc1)c1c(O)c2ccccc2oc1=O [R-Warfarin, R-warfarin]
Clinical [2]; R-warfarin in plasma, single 7.5 mg oral racemic warfarin, with single 40 mg (2x20 mg) oral octreotide acetate, healthy volunteers, mean ± SD
  Cmax: 508 ± 97.0 ng/mL
Clinical [2]; R-warfarin in plasma, single 7.5 mg oral racemic warfarin, without oral octreotide (placebo), healthy volunteers, mean ± SD
  Cmax: 498 ± 82.0 ng/mL
Clinical [2]; R-warfarin with oral octreotide 40 mg, 7.5 mg racemic warfarin
  Cmax, least squares geometric mean, Test: 500.10
Clinical [2]; [5]
  AUC(0-5) Geometric Mean Ratio, Estimate: 105.17%
  Cmax Geometric Mean Ratio, Estimate: 101.84%
Clinical [2]; R-warfarin with placebo, 7.5 mg racemic warfarin
  Cmax, least squares geometric mean, Reference: 491.04
Clinical [2]; R-warfarin, 7.5 mg racemic warfarin, with 40 mg oral octreotide acetate, mean ± SD
  AUC(0-5): 2012 ± 348 ng·h/mL
Clinical [2]; R-warfarin, 7.5 mg racemic warfarin, with 40 mg oral octreotide acetate, median
  Tmax: 2.00 (18) h
Clinical [2]; R-warfarin, 7.5 mg racemic warfarin, without oral octreotide (placebo), mean ± SD
  AUC(0-5): 1907 ± 280 ng·h/mL
Clinical [2]; R-warfarin, 7.5 mg racemic warfarin, without oral octreotide (placebo), median
  Tmax: 1.00 (18) h
Clinical [2]; healthy volunteers
  effect of oral octreotide on the exposure to the probe drug (Cmax and AUC0-5): no significant effect

## CC(=O)C[C@@H](c1ccccc1)c1c(O)c2ccccc2oc1=O [S-Warfarin, S-warfarin]
Clinical [2]; S-warfarin in plasma, single 7.5 mg oral racemic warfarin, with single 40 mg (2x20 mg) oral octreotide acetate, healthy volunteers, mean ± SD
  Cmax: 492 ± 114.2 ng/mL
Clinical [2]; S-warfarin in plasma, single 7.5 mg oral racemic warfarin, without oral octreotide (placebo), mean ± SD
  Cmax: 503 ± 91.2 ng/mL
Clinical [2]; S-warfarin with oral octreotide 40 mg, 7.5 mg racemic warfarin
  Cmax, least squares geometric mean, Test: 480.09
Clinical [2]; [6]
  AUC(0-5) Geometric Mean Ratio, Estimate: 102.38%
  Cmax Geometric Mean Ratio, Estimate: 97.06%
Clinical [2]; S-warfarin with placebo, 7.5 mg racemic warfarin
  Cmax, least squares geometric mean, Reference: 494.64
Clinical [2]; S-warfarin, 7.5 mg racemic warfarin, with 40 mg oral octreotide acetate, mean ± SD
  AUC(0-5): 1894 ± 330 ng·h/mL
Clinical [2]; S-warfarin, 7.5 mg racemic warfarin, with 40 mg oral octreotide acetate, median
  Tmax: 1.50 (18) h
Clinical [2]; S-warfarin, 7.5 mg racemic warfarin, without oral octreotide (placebo), mean ± SD
  AUC(0-5): 1846 ± 286 ng·h/mL
Clinical [2]; S-warfarin, 7.5 mg racemic warfarin, without oral octreotide (placebo), median
  Tmax: 1.00 (18) h
Clinical [2]; healthy volunteers
  effect of oral octreotide on the exposure to the probe drug (Cmax and AUC0-5): no significant effect
